Reference: patent publication US20130210846A1, “USE OF NOVEL PAN-CDK INHIBITORS FOR TREATING TUMORS” (BAYER INTELLECTUAL PROPERTY GMBH, priority 2010, published 2013)

How the values were obtained:
[1] = system: NCI-H82 human small-cell lung tumor cells; assay: NCI-H82 human small-cell lung tumor model; assay type: in vivo, female NMRI nude mice; details: NCI-H82; a) 1.7 mg/kg oral 2× per day on 3 successive days, followed by 4 treatment-free days
Description: (§1) Tumor cells grown in cell culture were implanted subcutaneously in the flank of female or male NMRI nude mice. The treatment was started as soon as the tumors had grown to a size of approx. 20 mm^2 The study was ended as soon as the tumors in one of the groups reached a size of approx. 150 mm^2.
(§2) Vehicle group: treatment with solubilizer (40% PEG400/60% water)
(§3) The studies were designed for determining the initial response of the human tumor model to the treatment with the Exemplary compound 2-SI-2. Tumor growth inhibition in percent (TGI) was either calculated at the end of the studies from the tumor weights (TGITW) using the formula 100×[1−(tumor weight of the treatment group/tumor weight of the vehicle group)], or on the day the vehicle group had to be ended from the tumor areas (TGITA) using the formula 100×[1−(tumor area of the treatment group on the day of the measurement−tumor area of the treatment group prior to treatment)/(tumor area of the vehicle group on the day of the measurement−tumor area of the vehicle group prior to treatment)]. In the case of a tumor growth inhibition of more than 50%, the treatment was considered to have been effective.
Efficacy in the NCI-H82 human small-cell lung tumor model.
NCI-H82 human small-cell lung tumor cells implanted into female NMRI nude mice.
• a) 0.17 mg/ml of Example 2-SI-2 in 40% (v/v) PEG 400 in water […]

[2] = system: MDA-MB231 human breast tumor cells; assay: MDA-MB231 human breast tumor model; assay type: in vivo, female NMRI nude mice
Description: as §1, §2, §3
Efficacy in the MDA-MB231 human breast tumor model MDA-MB231.
MDA-MB231 human breast tumor cells implanted into female NMRI nude mice.
• a) 0.20 mg/ml of Example 2-SI-2 in 40% (v/v) PEG 400 in water • b) 0.25 mg/ml of Example 2-SI-2 in 40% (v/v) PEG 400 in water • c) 0.15 mg/ml of Example 2-SI-2 in 40% (v/v) PEG 400 in water • d) 0.17 mg/ml of Example 2-SI-2 in 40% (v/v) PEG 400 in water
• a) 2.0 mg/kg (6.0 mg/m^2), 1× per day. • b) 2.5 mg/kg (7.5 mg/m^2), 2× per day on 2 successive days, followed by 5 treatment-free days. • c) 1.5 mg/kg (4.5 mg/m^2), 2× per day on 3 successive days, followed by 4 treatment-free days. • d) 1.7 mg/kg (5.1 mg/m^2), 2× per day on 3 successive days, followed by 4 treatment-free days.

[3] = system: HeLa-MaTu-ADR multidrug-resistant human cervix carcinoma cells; assay: HeLa-MaTu-ADR Res. xenograft model; assay type: in vivo, female NMRI nude mice
Description: as §1, §2, §3
Efficacy in the HeLa-MaTu-ADR Res. xenograft model
HeLa-MaTu-ADR multidrug-resistant human cervix carcinoma cells implanted into female NMRI nude mice.
Formulation • a) 0.15 mg/ml, 0.20 mg/ml of Example 2-SI-2 in 40% (v/v) PEG 400 in water • b) 0.20 mg/ml, 0.25 mg/ml of Example 2-SI-2 in 40% (v/v) PEG 400 in water
• a) 1.5 and 2.0 mg/kg (4.5 and 6.0 mg/m^2), 1× per day • b) 2.0 and 2.5 mg/kg (6.0 and 7.5 mg/m^2), 2× per day on 2 successive days, followed by 5 treatment-free days

OVCAR-8 = assay: Proliferation assay OVCAR-8; assay type: cell-based; details: Homo sapiens, 96 h; OVCAR-8, ovarial carcinoma; 4 days, crystal violet
Protocol: (§4) Cultivated human tumor cells (originally obtained from ATCC, HeLa-MaTu and HeLa-MaTu-ADR, originally obtained from Epo GmbH, Berlin, Germany) were plated at a density of 1000 to 5000 cells/measuring point, depending on the growth rate of the cell line, in a 96-well multititer plate in 200 μl of growth medium (DMEM/HAMS F12, 2 mM L-glutamine, 10% fetal calf serum). After 24 hours the cells of one plate (zero-point plate) were stained with crystal violet (see below), whereas the medium of the other plates was replaced with fresh culture medium (200 μl), to which the test substances had been added at various concentrations (0 μM, and in the range 0.01-30 μM; the final concentration of the solvent dimethyl sulfoxide was 0.5%). The cells were incubated for 4 days in the presence of the test substances. Cellular proliferation was determined by staining the cells with crystal violet: the cells were fixed by adding 20 μl/measuring point of an 11% glutaraldehyde solution for 15 min at room temperature. […] The extinction was determined photometrically at a wavelength of 595 nm. The percentage change in cell growth was calculated by standardization of the measured values to the extinction values of the zero-point plate (=0%) and the extinction of the untreated (0 μM) cells (=100%). […] The IC50 values were determined by means of a 4-parameter fit using the company's own software. […]

A2780 = assay: Proliferation assay A2780; assay type: cell-based; details: Homo sapiens, 96 h; A2780, ovarial carcinoma; 4 days, crystal violet
Protocol: as §4

[4] = HeLa-MaTu-ADR; b) 2.5 mg/kg oral 2× per day on 2 successive days, followed by 5 treatment-free days

| SMILES | TGITW (tumor growth inhibition from tumor weights) [1] | TGITA (tumor growth inhibition from tumor areas, measured on the day the vehicle group was ended) ([2]; MDA-MB231; a) 2.0 mg/kg oral 1× per day) | TGITA (tumor growth inhibition from tumor areas) ([2]; MDA-MB231; b) 2.5 mg/kg oral 2× per day on 2 successive days, followed by 5 treatment-free days) | TGITA (tumor growth inhibition from tumor areas) ([2]; MDA-MB231; c) 1.5 mg/kg oral 2× per day on 3 successive days, followed by 4 treatment-free days) | TGITA (tumor growth inhibition from tumor areas) ([2]; MDA-MB231; d) 1.7 mg/kg oral 2× per day on 3 successive days, followed by 4 treatment-free days) | TGITW (tumor growth inhibition from tumor weights) ([3]; HeLa-MaTu-ADR; a) 2.0 mg/kg oral 1× per day) | TGITW (tumor growth inhibition from tumor weights) [3, 4] | tumor regression observation [3, 4] | IC50 (OVCAR-8) | IC50 (A2780) |
| --- | --- | --- | --- | --- | --- | --- | --- | --- | --- | --- |
| C[C@@H](O)[C@@H](C)Oc1nc(Nc2ccc(S(C)(=N)=O)cc2)ncc1C(F)(F)F (mixture of isomers) [Example 2-SI-2, (RS)—S-(4-{[4-{[(1R,2R)-2-Hydroxy-1-methylpropyl]oxy}-5-(trifluoromethyl)pyrimidin-2-yl]-amino}phenyl)-S-methylsulfoximide] | 86% | 92% | 76% | 70% | 70% | 97% | 90% | signs of tumor regression |  |  |
| C[C@@H](O)[C@@H](C)Oc1nc(Nc2ccc(S(C)(=N)=O)cc2)ncc1C(F)(F)F (single isomer, unassigned) [Example 2-SI-2] |  |  |  |  |  |  |  |  | 14 nM | 3 nM |
